Assays:
[1] = tested on: S. pneumoniae ATCC 49619; assay: MIC, NCCLS broth microdilution assay; format: cell-based, Streptococcus pneumoniae; settings: H = S. pneumoniae ATCC 49619
Experimental: (§1) Compounds according to this invention were screened for their in vitro activities against selected species of bacteria and fungi. The minimal inhibition concentration (MIC) of these compounds was determined using the National Committee for Clinical Laboratory Standards (NCCLS) broth microdilution assay in microtiter plates, as set forth in: (1) the guidelines of the National. Committee for Clinical Laboratory Standards (NCCLS) Document M7-A4 (NCCLS, 1997); (2) the guidelines of the National Committee for Clinical Laboratory Standards (NCCLS) Document M11-A4 (NCCLS, 1997); and (3) the guidelines and reference method of the National Committee for Clinical Laboratory Standards (NCCLS) Document M27-T (NCCLS, 1995). For antifungal assays, the method recommended in Murray, P R., 1995 Manual of Clinical Microbiology (ASM Press, Washington, D.C.), was employed.

[2] = tested on: Candida albicans (ATCC 38247); assay: Antifungal MIC assay; format: cell-based; settings: B = C. albicans ATCC 38247
Text: (§2) In vitro biological activity data were collected for a variety of microorganisms, including Bacillus cereus (ATCC 11778), Staphylococcus aureus (ATCC 27660, a methicillin resistant strain (MRSA); ATCC 13709, a methicillin sensitive strain (MSSA)); Streptococcus pneumoniae (ATCC 51422, a penicillin resistant strain (PRSP)), Enterococcus faecium (ATCC 51559, a vancomycin resistant strain (VRE)), and Staphylococcus epidermidis (ATCC 12228). Additionally, antifungal activity data were collected for Candida albicans (ATCC 38247).
as §1

[3] = tested on: Bacillus cereus (ATCC 11778); assay: MIC, NCCLS broth microdilution assay; format: cell-based; settings: A = B. cereus ATCC 11778
Text: as §2, §1

[4] = tested on: E. faecalis ATCC 29212; assay: MIC, NCCLS broth microdilution assay; format: cell-based, Enterococcus faecalis; settings: C = E. faecalis ATCC 29212
Experimental: as §1

[5] = tested on: Staphylococcus aureus (ATCC 27660, a methicillin resistant strain (MRSA)); assay: MIC, NCCLS broth microdilution assay; format: cell-based; settings: F = S. aureus ATCC 27660
Text: as §2, §1

[6] = tested on: Staphylococcus aureus (ATCC 13709, a methicillin sensitive strain (MSSA)); assay: MIC, NCCLS broth microdilution assay; format: cell-based; settings: E = S. aureus ATCC 13709
Text: as §2, §1

SMILES | Minimum Inhibitory Concentration (MIC) [1] | Minimum Inhibitory Concentration (MIC) [2] | Minimum Inhibitory Concentration (MIC) [3] | Minimum Inhibitory Concentration (MIC) [4] | Minimum Inhibitory Concentration (MIC) [5] | Minimum Inhibitory Concentration (MIC) [6]
Cn1cc(NC(=O)c2cc(NC(=O)c3cc(NC(=O)c4ccc(Cl)cc4)c[nH]3)cn2C)cc1C(=O)NCCN1CCOCC1 [Compound A-34] | + (+ = 12 ≦ MIC ≦ 32) | + (+ = 12 ≦ MIC ≦ 32) | +++ (+++ = MIC ≦ 4) | ++ (++ = 4 < MIC < 12) | – | –
Cn1cc(NC(=O)c2cc(NC(=O)c3ccc(Cl)cc3)cn2C)cc1C(=O)NCCN1CCOCC1 [Compound B-57] | +++ (+++ = MIC ≦ 4) | >32 mg/L | + (+ = 12 ≦ MIC ≦ 32) | +++ (+++ = MIC ≦ 4) | – | –
Cn1cc(NC(=O)c2cc(NC(=O)c3ccccc3F)cn2C)cc1C(=O)NCCN1CCSCC1 [Compound B-40] | +++ (+++ = MIC ≦ 4) | >32 mg/L | ++ (++ = 4 < MIC < 12) | +++ (+++ = MIC ≦ 4) | ++ (++ = 4 < MIC < 12) | ++ (++ = 4 < MIC < 12)
Cc1cc(NC(=O)c2cc(NC(=O)c3cc(NC(=O)c4ccc(Cl)cc4)cn3C)cn2CCN2CCOCC2)sn1 [Compound D-28] | +++ (+++ = MIC ≦ 4) | >32 mg/L | + (+ = 12 ≦ MIC ≦ 32) | + (+ = 12 ≦ MIC ≦ 32) | + (+ = 12 ≦ MIC ≦ 32) | + (+ = 12 ≦ MIC ≦ 32)
Cc1cc(NC(=O)c2cc(NC(=O)c3cc(NC(=O)c4ccc(Cl)cc4F)c[nH]3)cn2CCC[N+](C)(C)C)sn1 [Compound D-23] | +++ (+++ = MIC ≦ 4) | ++ (++ = 4 < MIC < 12) | +++ (+++ = MIC ≦ 4) | +++ (+++ = MIC ≦ 4) | +++ (+++ = MIC ≦ 4) | +++ (+++ = MIC ≦ 4)
C[C@@H]1CCC[C@H](C)N1CCNC(=O)c1cc(NC(=O)c2cc(NC(=O)c3cc(NC(=O)c4ccc(F)cc4F)cn3C)cn2C)cn1C [Compound B-20] | +++ (+++ = MIC ≦ 4) | >32 mg/L | +++ (+++ = MIC ≦ 4) | + (+ = 12 ≦ MIC ≦ 32) | ++ (++ = 4 < MIC < 12) | +++ (+++ = MIC ≦ 4)
Cn1cc(NC(=O)c2cc(NC(=O)c3cc(NC(=O)c4ccc(F)cc4)cn3C)cn2C)cc1C(=O)NCCN1CCSCC1 [Compound B-34] | +++ (+++ = MIC ≦ 4) | >32 mg/L | +++ (+++ = MIC ≦ 4) | +++ (+++ = MIC ≦ 4) | +++ (+++ = MIC ≦ 4) | +++ (+++ = MIC ≦ 4)
Cn1cc(NC(=O)c2cc(NC(=O)c3cc(NC(=O)c4ccccc4F)cn3C)cn2C)cc1C(=O)NCCN1CCOCC1 [Compound B-39] | +++ (+++ = MIC ≦ 4) | >32 mg/L | +++ (+++ = MIC ≦ 4) | +++ (+++ = MIC ≦ 4) | ++ (++ = 4 < MIC < 12) | +++ (+++ = MIC ≦ 4)
Cn1cc(NC(=O)c2cc(NC(=O)c3cc(NC(=O)c4cc(NC(=O)c5ccc(F)cc5)cn4C)cn3C)cn2C)cc1C(=O)NCCN1CCOCC1 [Compound B-37] | +++ (+++ = MIC ≦ 4) | >32 mg/L | +++ (+++ = MIC ≦ 4) | +++ (+++ = MIC ≦ 4) | >32 mg/L | +++ (+++ = MIC ≦ 4)
Cn1cc(NC(=O)c2cc(NC(=O)c3ccc(Cl)cc3F)c[nH]2)cc1C(=O)Nc1cc(C(=O)NCCN2CCCCC2)n(CCN2CCCCC2)c1 [Compound D-14] | +++ (+++ = MIC ≦ 4) | >32 mg/L | +++ (+++ = MIC ≦ 4) | +++ (+++ = MIC ≦ 4) | +++ (+++ = MIC ≦ 4) | +++ (+++ = MIC ≦ 4)
Cn1cc(NC(=O)c2cc(NC(=O)c3ccc(Cl)c(Cl)c3)cn2C)cc1C(=O)NCCN1CCOCC1 [Compound B-54] | +++ (+++ = MIC ≦ 4) | >32 mg/L | ++ (++ = 4 < MIC < 12) | ++ (++ = 4 < MIC < 12) | ++ (++ = 4 < MIC < 12) | +++ (+++ = MIC ≦ 4)
Cn1cc(NC(=O)c2cc(NC(=O)c3cc(NC(=O)c4c(Cl)cccc4Cl)cn3C)cn2C)cc1C(=O)NCCN1CCOCC1 [Compound B-52] | >32 mg/L | >32 mg/L | >32 mg/L | >32 mg/L | – | –
Cn1cc(NC(=O)c2cc(NC(=O)c3cc(NC(=O)c4ccc(F)cc4Cl)cn3C)cn2C)cc1C(=O)NCCN1CCOCC1 [Compound B-45] | +++ (+++ = MIC ≦ 4) | >32 mg/L | ++ (++ = 4 < MIC < 12) | ++ (++ = 4 < MIC < 12) | – | –
Cn1cc(NC(=O)c2cc(NC(=O)c3cc(NC(=O)c4cccc(F)c4)cn3C)cn2C)cc1C(=O)NCCN1CCOCC1 [Compound B-38] | + (+ = 12 ≦ MIC ≦ 32) | >32 mg/L | + (+ = 12 ≦ MIC ≦ 32) | + (+ = 12 ≦ MIC ≦ 32) | – | –
Cn1cc(NC(=O)c2cc(NC(=O)c3cc(NC(=O)c4ccc(F)c(Cl)c4)cn3C)cn2C)cc1C(=O)NCCN1CCOCC1 [Compound B-46] | +++ (+++ = MIC ≦ 4) | >32 mg/L | +++ (+++ = MIC ≦ 4) | +++ (+++ = MIC ≦ 4) | – | –
Cn1cc(NC(=O)c2cc(NC(=O)c3cc(NC(=O)c4ccc(F)c(F)c4)cn3C)cn2C)cc1C(=O)NCCN1CCOCC1 [Compound B-31] | +++ (+++ = MIC ≦ 4) | >32 mg/L | ++ (++ = 4 < MIC < 12) | +++ (+++ = MIC ≦ 4) | – | –
Cn1cc(NC(=O)c2cc(NC(=O)c3cc(NC(=O)c4cccc(C(F)(F)F)c4)cn3C)cn2C)cc1C(=O)NCCN1CCOCC1 [Compound B-70] | + (+ = 12 ≦ MIC ≦ 32) | >32 mg/L | + (+ = 12 ≦ MIC ≦ 32) | ++ (++ = 4 < MIC < 12) | – | –
Cn1cc(NC(=O)c2cc(NC(=O)c3cc(NC(=O)c4ccccc4Cl)cn3C)cn2C)cc1C(=O)NCCN1CCOCC1 [Compound B-60] | + (+ = 12 ≦ MIC ≦ 32) | >32 mg/L | + (+ = 12 ≦ MIC ≦ 32) | + (+ = 12 ≦ MIC ≦ 32) | – | –
Cn1cc(NC(=O)c2cc(NC(=O)c3cc(NC(=O)c4ccc(Cl)cc4Cl)cn3C)cn2C)cc1C(=O)NCCN1CCOCC1 [Compound B-55] | +++ (+++ = MIC ≦ 4) | >32 mg/L | +++ (+++ = MIC ≦ 4) | +++ (+++ = MIC ≦ 4) | – | –
Cn1cc(NC(=O)c2cc(NC(=O)c3ccc(F)cc3F)cn2C)cc1C(=O)NCCN1CCOCC1 [Compound B-2] | +++ (+++ = MIC ≦ 4) | >32 mg/L | ++ (++ = 4 < MIC < 12) | +++ (+++ = MIC ≦ 4) | – | –
Cn1cc(NC(=O)c2cc(NC(=O)c3cc(NC(=O)c4ccc(C(F)(F)F)cc4)cn3C)cn2C)cc1C(=O)NCCN1CCOCC1 [Compound B-71] | +++ (+++ = MIC ≦ 4) | >32 mg/L | + (+ = 12 ≦ MIC ≦ 32) | ++ (++ = 4 < MIC < 12) | – | –
Cn1cc(NC(=O)c2cc(NC(=O)c3cc(NC(=O)c4cccc(Cl)c4)cn3C)cn2C)cc1C(=O)NCCN1CCOCC1 [Compound B-59] | ++ (++ = 4 < MIC < 12) | >32 mg/L | + (+ = 12 ≦ MIC ≦ 32) | ++ (++ = 4 < MIC < 12) | – | –

— US7348427B2, “Antipathogenic benzamide compounds” (Genesoft Pharmaceuticals, Inc., priority 2001, dated 2008)
